pIC50: −log10 of the molar value.
Experiments:
[1] = system: Wi38, RPE, and HT-22 cells; test: MTT assay, viability of normal cells; type: cell-based, human, mouse
Description: (§1) Cells were seeded into 96-well plates at a density of 1-2 × 10^3 cells/well and incubated for 24 h. Cells were treated with vehicle or various concentrations of test compounds for two (PC9 and PC9/ER cells) or three (other cells) days. Cells were further incubated with MTT solution (final concentration of 500 μg/mL) for 4 h at 37 °C. The formazan products were dissolved in dimethyl sulfoxide (DMSO), and the absorbance was measured at 570 nm. The data are presented as a percentage of the control group.

[2] = biological target: T1, MKNK2 (Homo sapiens, UniProt Q9HBH9); test: KINOMEscan competition binding assay; conditions: LL6 at 10 μM; read-out: Percent Control
T1 construct: purchased DiscoverX KINOMEscan
Description: (§2) Kd values were obtained by KINOMEscan from DiscoverX (San Diego, CA, USA). To briefly summarize, Kd was measured by a competition binding assay that quantitatively measures the ability of a compound to compete with an immobilized ligand. […] Dose response curves of 11 points are obtained for Kd values, which are measured in duplicate. See more details in the cited references [39]-[42] and see also at www.discoverx.com.

[3] = biological target: T2, TSSK1B (Homo sapiens, UniProt Q9BXA7); test: KINOMEscan competition binding assay; conditions: LL6 at 10 μM; read-out: Percent Control
T2 construct: purchased DiscoverX KINOMEscan
Description: as §2

[4] = biological target: T3, MLK1 (Homo sapiens, UniProt P80192); test: KINOMEscan competition binding assay; conditions: LL6 at 10 μM; read-out: Percent Control
T3 construct: purchased DiscoverX KINOMEscan
Description: as §2

[5] = biological target: T4, IKK-beta (Homo sapiens, UniProt O14920); test: KINOMEscan competition binding assay; conditions: LL6 at 10 μM; read-out: Percent Control
T4 construct: purchased DiscoverX KINOMEscan
T4 sequence (O14920 whole entry): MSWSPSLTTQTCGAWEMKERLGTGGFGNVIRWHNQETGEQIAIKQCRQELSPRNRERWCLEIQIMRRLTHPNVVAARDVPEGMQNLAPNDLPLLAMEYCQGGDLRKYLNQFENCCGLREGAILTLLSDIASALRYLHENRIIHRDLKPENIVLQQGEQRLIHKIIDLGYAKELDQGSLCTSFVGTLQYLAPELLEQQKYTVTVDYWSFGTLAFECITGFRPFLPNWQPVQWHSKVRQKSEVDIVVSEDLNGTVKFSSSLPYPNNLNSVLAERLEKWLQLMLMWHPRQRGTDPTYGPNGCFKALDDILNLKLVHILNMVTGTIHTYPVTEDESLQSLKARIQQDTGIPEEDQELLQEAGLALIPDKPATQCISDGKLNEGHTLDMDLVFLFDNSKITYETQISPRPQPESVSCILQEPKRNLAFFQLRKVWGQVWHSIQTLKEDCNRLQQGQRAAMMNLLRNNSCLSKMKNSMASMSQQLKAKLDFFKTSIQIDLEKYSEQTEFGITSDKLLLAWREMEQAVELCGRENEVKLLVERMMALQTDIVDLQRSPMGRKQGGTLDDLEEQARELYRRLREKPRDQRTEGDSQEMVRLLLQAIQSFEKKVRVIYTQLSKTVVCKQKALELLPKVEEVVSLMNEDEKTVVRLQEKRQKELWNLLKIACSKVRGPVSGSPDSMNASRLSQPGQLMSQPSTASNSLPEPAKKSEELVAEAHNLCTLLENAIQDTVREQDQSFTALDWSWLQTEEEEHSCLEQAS
Description: as §2

[6] = biological target: T5, TRKA (Homo sapiens, UniProt P04629); test: KINOMEscan competition binding assay; conditions: LL6 at 10 μM; read-out: Percent Control
T5 construct: purchased DiscoverX KINOMEscan
Description: as §2

[7] = biological target: T6, PRKCE (Homo sapiens, UniProt Q02156); test: KINOMEscan competition binding assay; conditions: LL6 at 10 μM; read-out: Percent Control
T6 construct: purchased DiscoverX KINOMEscan
Description: as §2

[8] = biological target: T7, PIK3C2B (Homo sapiens, UniProt O00750); test: KINOMEscan competition binding assay; conditions: LL6 at 10 μM; read-out: Percent Control
T7 construct: purchased DiscoverX KINOMEscan
Description: as §2

[9] = biological target: T8, PAK1 (Homo sapiens, UniProt Q13153); test: KINOMEscan competition binding assay; conditions: LL6 at 10 μM; read-out: Percent Control
T8 construct: purchased DiscoverX KINOMEscan
Description: as §2

[10] = biological target: T9, KIT (Homo sapiens, UniProt P10721); test: KINOMEscan competition binding assay
T9 construct: purchased DiscoverX (KINOMEscan service)
T9 sequence (P10721 26-976): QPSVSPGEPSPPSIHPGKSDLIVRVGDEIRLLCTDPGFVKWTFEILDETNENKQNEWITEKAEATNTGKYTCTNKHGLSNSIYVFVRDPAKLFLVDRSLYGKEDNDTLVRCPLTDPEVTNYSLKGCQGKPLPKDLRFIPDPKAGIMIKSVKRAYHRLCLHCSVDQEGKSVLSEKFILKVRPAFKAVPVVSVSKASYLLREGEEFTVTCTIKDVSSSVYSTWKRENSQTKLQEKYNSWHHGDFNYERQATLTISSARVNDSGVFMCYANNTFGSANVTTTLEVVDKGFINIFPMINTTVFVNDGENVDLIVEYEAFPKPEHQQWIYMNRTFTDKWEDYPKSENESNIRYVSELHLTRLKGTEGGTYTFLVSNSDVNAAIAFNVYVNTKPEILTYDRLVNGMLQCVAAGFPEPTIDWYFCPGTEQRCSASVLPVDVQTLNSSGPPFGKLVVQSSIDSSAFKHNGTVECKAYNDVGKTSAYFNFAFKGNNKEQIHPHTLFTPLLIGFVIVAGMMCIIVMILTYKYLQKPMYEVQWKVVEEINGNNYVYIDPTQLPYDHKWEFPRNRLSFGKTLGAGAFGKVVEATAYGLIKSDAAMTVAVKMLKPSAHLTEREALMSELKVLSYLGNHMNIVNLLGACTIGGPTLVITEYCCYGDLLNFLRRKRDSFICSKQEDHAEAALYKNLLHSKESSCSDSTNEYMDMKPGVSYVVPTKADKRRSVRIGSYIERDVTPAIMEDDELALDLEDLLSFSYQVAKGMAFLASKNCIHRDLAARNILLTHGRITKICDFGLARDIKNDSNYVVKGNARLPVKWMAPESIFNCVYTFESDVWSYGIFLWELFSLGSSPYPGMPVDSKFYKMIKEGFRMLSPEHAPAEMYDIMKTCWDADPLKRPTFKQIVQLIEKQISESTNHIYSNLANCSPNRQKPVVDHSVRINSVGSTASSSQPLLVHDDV
Description: as §2

[11] = biological target: T10, EPHA2 (Homo sapiens, UniProt P29317); test: KINOMEscan competition binding assay; conditions: LL6 at 10 μM; read-out: Percent Control
T10 construct: purchased DiscoverX KINOMEscan
Description: as §2

[12] = biological target: T11, ULK2 (Homo sapiens, UniProt Q8IYT8); test: KINOMEscan competition binding assay; conditions: LL6 at 10 μM; read-out: Percent Control
T11 construct: purchased DiscoverX KINOMEscan
Description: as §2

[13] = biological target: T12, PAK4 (Homo sapiens, UniProt O96013); test: KINOMEscan competition binding assay; conditions: LL6 at 10 μM; read-out: Percent Control
T12 construct: purchased DiscoverX KINOMEscan
Description: as §2

[14] = biological target: T13, TGFBR1 (Homo sapiens, UniProt P36897); test: KINOMEscan competition binding assay; conditions: LL6 at 10 μM; read-out: Percent Control
T13 construct: purchased DiscoverX KINOMEscan
Description: as §2

[15] = biological target: T14, PDGFRB (Homo sapiens, UniProt P09619); test: KINOMEscan competition binding assay
T14 construct: purchased DiscoverX KINOMEscan
T14 sequence (P09619 33-1106): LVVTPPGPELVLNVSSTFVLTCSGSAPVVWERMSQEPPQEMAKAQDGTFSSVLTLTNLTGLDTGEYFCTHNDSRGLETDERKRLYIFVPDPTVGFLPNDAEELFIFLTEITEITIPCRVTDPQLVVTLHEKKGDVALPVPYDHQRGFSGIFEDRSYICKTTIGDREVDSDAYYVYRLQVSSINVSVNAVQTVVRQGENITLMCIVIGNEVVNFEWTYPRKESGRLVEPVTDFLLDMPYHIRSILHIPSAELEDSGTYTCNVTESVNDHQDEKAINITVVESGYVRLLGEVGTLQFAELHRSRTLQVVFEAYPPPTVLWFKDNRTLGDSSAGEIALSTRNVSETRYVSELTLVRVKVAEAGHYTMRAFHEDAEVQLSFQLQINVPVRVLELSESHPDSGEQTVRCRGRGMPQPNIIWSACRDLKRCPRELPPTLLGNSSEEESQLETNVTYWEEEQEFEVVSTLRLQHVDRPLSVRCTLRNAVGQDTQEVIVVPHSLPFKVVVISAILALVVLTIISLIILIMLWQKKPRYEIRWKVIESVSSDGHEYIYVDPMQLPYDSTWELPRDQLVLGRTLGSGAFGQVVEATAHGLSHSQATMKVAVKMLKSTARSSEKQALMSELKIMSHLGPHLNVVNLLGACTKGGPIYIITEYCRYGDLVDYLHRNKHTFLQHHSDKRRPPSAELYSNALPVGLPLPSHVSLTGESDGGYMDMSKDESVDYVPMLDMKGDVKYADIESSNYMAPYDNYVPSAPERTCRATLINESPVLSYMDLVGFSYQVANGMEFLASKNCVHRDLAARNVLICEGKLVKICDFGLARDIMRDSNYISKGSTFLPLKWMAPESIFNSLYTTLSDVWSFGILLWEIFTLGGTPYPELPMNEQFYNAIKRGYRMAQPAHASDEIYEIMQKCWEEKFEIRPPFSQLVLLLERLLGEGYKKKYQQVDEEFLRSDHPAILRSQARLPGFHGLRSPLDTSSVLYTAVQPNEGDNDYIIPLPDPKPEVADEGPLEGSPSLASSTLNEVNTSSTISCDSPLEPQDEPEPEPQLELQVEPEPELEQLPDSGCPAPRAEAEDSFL
Description: as §2

[16] = biological target: T15, DCAMKL1 (Homo sapiens, UniProt O15075); test: KINOMEscan competition binding assay; conditions: LL6 at 10 μM; read-out: Percent Control
T15 construct: purchased DiscoverX KINOMEscan
Description: as §2

[17] = biological target: T16, CDK7 (Homo sapiens, UniProt P50613); test: KINOMEscan competition binding assay; conditions: LL6 at 10 μM; read-out: Percent Control
T16 construct: purchased DiscoverX KINOMEscan
T16 sequence (P50613 whole entry): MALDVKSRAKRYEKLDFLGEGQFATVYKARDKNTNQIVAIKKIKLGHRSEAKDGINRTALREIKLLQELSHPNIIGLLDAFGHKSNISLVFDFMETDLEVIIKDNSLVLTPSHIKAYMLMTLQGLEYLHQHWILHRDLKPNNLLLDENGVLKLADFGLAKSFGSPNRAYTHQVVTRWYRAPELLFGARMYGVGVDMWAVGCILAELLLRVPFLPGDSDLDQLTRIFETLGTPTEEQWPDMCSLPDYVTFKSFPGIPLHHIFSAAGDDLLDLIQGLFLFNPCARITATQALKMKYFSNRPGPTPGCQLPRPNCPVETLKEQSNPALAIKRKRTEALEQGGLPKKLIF
Description: as §2

[18] = biological target: T17, CDK11 (Homo sapiens, UniProt Q9BWU1); test: KINOMEscan competition binding assay; conditions: LL6 at 10 μM; read-out: Percent Control
T17 construct: purchased DiscoverX KINOMEscan
Description: as §2

[19] = biological target: T18, MARK3 (Homo sapiens, UniProt P27448); test: KINOMEscan competition binding assay; conditions: LL6 at 10 μM; read-out: Percent Control
T18 construct: purchased DiscoverX KINOMEscan
Description: as §2

[20] = biological target: T19, BTK (Homo sapiens, UniProt Q06187); test: KINOMEscan competition binding assay; conditions: LL6 at 10 μM; read-out: Percent Control
T19 construct: purchased DiscoverX KINOMEscan
Description: as §2

[21] = biological target: T20, RET (Homo sapiens, UniProt P07949); test: KINOMEscan competition binding assay; conditions: LL6 at 10 μM; read-out: Percent Control
T20 construct: purchased DiscoverX KINOMEscan
Description: as §2

[22] = biological target: T21, MAPKAPK2 (Homo sapiens, UniProt P49137); test: KINOMEscan competition binding assay; conditions: LL6 at 10 μM; read-out: Percent Control
T21 construct: purchased DiscoverX KINOMEscan
T21 sequence (P49137 whole entry): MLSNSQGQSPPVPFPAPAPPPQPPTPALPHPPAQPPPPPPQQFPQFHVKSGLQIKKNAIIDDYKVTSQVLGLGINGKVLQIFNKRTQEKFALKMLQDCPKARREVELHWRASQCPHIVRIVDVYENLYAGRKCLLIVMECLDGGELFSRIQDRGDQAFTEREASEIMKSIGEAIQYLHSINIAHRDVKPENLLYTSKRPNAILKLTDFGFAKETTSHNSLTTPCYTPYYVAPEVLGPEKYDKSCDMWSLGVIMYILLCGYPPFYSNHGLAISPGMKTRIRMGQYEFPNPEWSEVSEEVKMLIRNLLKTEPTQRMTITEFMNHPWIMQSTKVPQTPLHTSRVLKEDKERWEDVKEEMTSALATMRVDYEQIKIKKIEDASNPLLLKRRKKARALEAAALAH
Description: as §2

[23] = biological target: T22, EGFR (Homo sapiens, UniProt P00533); test: KINOMEscan competition binding assay; conditions: LL6 at 10 μM; read-out: Percent Control
T22 construct: purchased DiscoverX KINOMEscan
T22 sequence (P00533 25-1210): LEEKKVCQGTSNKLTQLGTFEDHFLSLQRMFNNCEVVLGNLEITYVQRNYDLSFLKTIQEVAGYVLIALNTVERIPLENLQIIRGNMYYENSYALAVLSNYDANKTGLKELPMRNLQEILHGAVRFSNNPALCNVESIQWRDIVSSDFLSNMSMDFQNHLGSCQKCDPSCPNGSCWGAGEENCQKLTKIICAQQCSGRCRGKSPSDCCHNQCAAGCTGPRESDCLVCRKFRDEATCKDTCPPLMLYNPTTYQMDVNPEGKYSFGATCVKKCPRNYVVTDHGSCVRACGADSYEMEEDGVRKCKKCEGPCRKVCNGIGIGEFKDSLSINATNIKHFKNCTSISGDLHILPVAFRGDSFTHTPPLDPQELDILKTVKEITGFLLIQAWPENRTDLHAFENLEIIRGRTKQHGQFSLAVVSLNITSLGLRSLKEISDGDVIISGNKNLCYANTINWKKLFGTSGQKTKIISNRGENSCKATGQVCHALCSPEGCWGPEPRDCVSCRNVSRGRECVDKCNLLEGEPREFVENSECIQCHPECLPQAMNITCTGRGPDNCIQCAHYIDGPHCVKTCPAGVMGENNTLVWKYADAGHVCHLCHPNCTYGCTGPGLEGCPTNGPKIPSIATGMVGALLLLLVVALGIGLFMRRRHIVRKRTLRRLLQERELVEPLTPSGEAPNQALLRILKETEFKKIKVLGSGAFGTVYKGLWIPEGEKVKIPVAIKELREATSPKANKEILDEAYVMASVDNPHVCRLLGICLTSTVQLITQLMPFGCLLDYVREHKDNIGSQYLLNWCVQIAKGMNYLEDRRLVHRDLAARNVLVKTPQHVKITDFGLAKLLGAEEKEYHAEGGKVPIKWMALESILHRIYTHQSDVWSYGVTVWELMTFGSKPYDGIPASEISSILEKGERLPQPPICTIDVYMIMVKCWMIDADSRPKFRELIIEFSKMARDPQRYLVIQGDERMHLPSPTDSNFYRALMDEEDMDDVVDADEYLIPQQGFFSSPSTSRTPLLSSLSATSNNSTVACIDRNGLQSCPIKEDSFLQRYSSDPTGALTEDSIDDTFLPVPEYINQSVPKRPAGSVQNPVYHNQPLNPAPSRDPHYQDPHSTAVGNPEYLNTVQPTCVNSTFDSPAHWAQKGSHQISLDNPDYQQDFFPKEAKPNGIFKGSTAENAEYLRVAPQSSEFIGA
Description: as §2

[24] = biological target: T23, PLK3 (Homo sapiens, UniProt Q9H4B4); test: KINOMEscan competition binding assay; conditions: LL6 at 10 μM; read-out: Percent Control
T23 construct: purchased DiscoverX KINOMEscan
Description: as §2

[25] = system: NSCLC cell lines; test: MTT assay, viability of various NSCLC cell lines; type: cell-based; conditions: Homo sapiens; NSCLC cells with various genetic backgrounds and histologies
Description: as §1

[26] = system: LLC allografts; test: Spontaneous lung metastasis of LLC allografts; type: in vivo, C57BL/6 mice; conditions: 80 mg/kg orally, daily for 2 weeks
Description: We used the IVIS-Spectrum microCT and Living Image (ver. 4.2) software (PerkinElmer, Alameda, CA, USA) for monitoring metastatic tumor formation in the lungs. The instrument was operated according to the manufacturer's instruction. To facilitate the detection of photons emitted from metastatic lung tumors, we performed ex vivo imaging analysis. In brief, mice were injected at 60 mg/kg with the 15 mg/mL stock of luciferin prior to anesthesia. After 10-15 min, mice were euthanized, and lung tissues were excised and placed into a 60 mm dish. Tissues were immediately imaged after exposure for 1 min.

[27] = system: H1944 and A549 NSCLC cells; test: Apoptosis (PARP cleavage, chromatin condensation, sub-G1 phase); type: cell-based, human; conditions: LL6 2.5 µM; LDB = linsitinib 2 µM, dasatinib 50 nM, bemcentinib 100 nM
Description: Before harvesting, the cells were stimulated with 10% FBS for 20 min. Total cell lysates were prepared with modified radioimmunoprecipitation assay lysis buffer (50 mM Tris-HCl [pH 7.4], 150 mM NaCl, 1 mM EDTA, 0.25% sodium deoxycholate, 1% Triton X-100, 100 mM NaF, 5 mM Na3VO4, 1 mM PMSF, 1 μg/mL aprotinin, 1 μg/mL leupeptin, and 1 μg/mL pepstatin). Equal amounts of protein (20 μg) were subjected to 8% SDS-PAGE and electrically transferred onto polyvinylidene difluoride membranes (Bio-Rad Laboratories, Hercules, CA, USA). Membranes were blocked with blocking buffer (3% BSA in Tris-buffered saline containing 0.1% Tween-20 [TBST]) for 1 h at room temperature. The membranes were incubated with primary antibodies diluted in 3% BSA in TBST (1:1,000) overnight at 4 °C, washed multiple times with TBST, and incubated with secondary antibodies diluted in 3% nonfat dry milk in TBST (1:5,000) for 1 h at room temperature. The membranes were washed multiple times with TBST and visualized using an enhanced chemiluminescence detection kit (Thermo Fisher Scientific). Densitometric analysis was performed using ImageJ software.

[28] = LL6 at 10 μM, read-out: Percent Control

remaining binding at 10 µM [2]: 89% | remaining binding at 10 µM [3]: 100% | remaining binding at 10 µM [4]: 75% | remaining binding at 10 µM [5]: 100% | remaining binding at 10 µM [6]: 100% | remaining binding at 10 µM [7]: 100% | remaining binding at 10 µM [8]: 100% | remaining binding at 10 µM [9]: 100% | inhibition at 10 µM ([10]; KIT, LL6 at 10 µM): > 65% | remaining binding at 10 µM [10, 28]: 1.8% | remaining binding at 10 µM [11]: 100% | remaining binding at 10 µM [12]: 96% | remaining binding at 10 µM [13]: 97% | remaining binding at 10 µM [14]: 46% | remaining binding at 10 µM [15, 28]: 5% | inhibition at 10 µM ([15]; PDGFRB, LL6 at 10 µM): > 65% | remaining binding at 10 µM [16]: 100% | remaining binding at 10 µM [17]: 56% | remaining binding at 10 µM [18]: 13% | remaining binding at 10 µM [19]: 100% | remaining binding at 10 µM [20]: 100% | remaining binding at 10 µM [21]: 81% | remaining binding at 10 µM [22]: 100% | remaining binding at 10 µM [23]: 82% | remaining binding at 10 µM [24]: 90%
Structure (SMILES): Nc1ncnc2c1c(-c1ccc(Cl)cc1)nn2CCn1cc(COc2ccc(Nc3nccc(Nc4cnc5ccccc5c4)n3)cc2)nn1 [LL6]
cytotoxicity in normal cells compared with the LDB combination [1]: markedly less cytotoxicity | Kd ([10]; KIT, 11-point dose response, duplicate): did not show dose-dependent inhibition curves | pIC50 [25]: ~5.60 | metastatic tumor nodules in the lungs [26]: significantly decreased | proapoptotic effects (PARP cleavage, chromatin condensation, sub-G1 phase) [27]: notably induced apoptosis

Source: paper PMC7778606, “Development of the phenylpyrazolo[3,4-d]pyrimidine-based, insulin-like growth factor receptor/Src/AXL-targeting small molecule kinase inhibitor” (Theranostics, 2021)
